Data published in US20180360769A1, “SYSTEMS AND METHODS FOR TRANSDERMAL DRUG DELIVERY” (Elliptical Therapeutics, LLC, priority 2015, published 2018).

Legend:
[1] = animal models; cited from earlier work
rabbit skin = conditions: in vivo
[2] = human subjects, cited from earlier work
[3] = in vivo; cited from earlier work
[4] = system: moderate to severe post-operative pain; conditions: cited from earlier work

SMILES: O=C(c1ccccc1)c1ccc2n1CC[C@@H]2C(=O)O [(s)-ketorolac]
- potency compared with the (r)-enantiomer [1]: approximately twice as potent
- skin irritation (erythema and edema), in words (rabbit skin): non-irritant
- plasma concentrations compared with (r)-ketorolac ([2]; after oral administration of racemic ketorolac, all sample times): lower
- clearance compared with (r)-ketorolac ([2]; single oral solution dose): greater
- plasma half-life compared with (r)-ketorolac ([2]; single oral solution dose): shorter

SMILES: CCCCCCCCCCCCOS(=O)(=O)[O-].[Na+] [SDS, 5%, sodium dodecyl sulfate]
- Overall Edema Score (rabbit skin; New Zealand): 2.0
- Overall Erythema Score (rabbit skin; New Zealand): 1.0

SMILES: O=C(c1ccccc1)c1ccc2n1CCC2C(=O)O (racemic) [racemic ketorolac, ketorolac]
- biological half-life [3]: 4-6 hours

SMILES: O=C(c1ccccc1)c1ccc2n1CCC2C(=O)O (racemic) [Toradol®, Ketorolac tromethamine]
- adverse effects ([4]; administered orally for extended periods of time): gastric irritation and ulcers have been observed
- efficacy compared with morphine, meperidine, or pentazocine ([4]; single-dose, moderate to severe post-operative pain): more efficacious
